Source: PubChem BioAssay (NCI)
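GI50: concentration for 50% inhibition of growth. TGI marks complete inhibition of growth.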

Experiments:
Test in all cases: NCI anticancer screen, dose series, 384-well format
786-0 renal = system: 786-0 renal
A498 renal = system: A498 renal
A549 NSCLC = system: A549 NSCLC
ACHN renal = system: ACHN renal
BT-549 breast = system: BT-549 breast
CAKI-1 renal = system: CAKI-1 renal
CCRF-CEM leukemia = system: CCRF-CEM leukemia
COLO 205 colon = system: COLO 205 colon
DU-145 prostate = system: DU-145 prostate
EKVX NSCLC = system: EKVX NSCLC
HCT-116 colon = system: HCT-116 colon
HCT-15 colon = system: HCT-15 colon
HL-60(TB) leukemia = system: HL-60(TB) leukemia
HOP-62 NSCLC = system: HOP-62 NSCLC
HOP-92 NSCLC = system: HOP-92 NSCLC
HS 578T breast = system: HS 578T breast
HT29 colon = system: HT29 colon
IGROV1 ovarian = system: IGROV1 ovarian
KM12 colon = system: KM12 colon
LOX IMVI melanoma = system: LOX IMVI melanoma
M14 melanoma = system: M14 melanoma
MALME-3M melanoma = system: MALME-3M melanoma
MCF7 breast = system: MCF7 breast
MDA-MB-231 breast = system: MDA-MB-231 breast
MDA-MB-435 melanoma = system: MDA-MB-435 melanoma
MDA-MB-468 breast = system: MDA-MB-468 breast
MOLT-4 leukemia = system: MOLT-4 leukemia
NCI-H226 lung = system: NCI-H226 lung
NCI-H23 lung = system: NCI-H23 lung
NCI-H322M lung = system: NCI-H322M lung
NCI-H460 NSCLC = system: NCI-H460 NSCLC
NCI-H522 lung = system: NCI-H522 lung
OVCAR-3 ovarian = system: OVCAR-3 ovarian
OVCAR-4 ovarian = system: OVCAR-4 ovarian
OVCAR-5 ovarian = system: OVCAR-5 ovarian
OVCAR-8 ovarian = system: OVCAR-8 ovarian
PC-3 prostate = system: PC-3 prostate
RPMI-8226 leukemia = system: RPMI-8226 leukemia
RXF 393 renal = system: RXF 393 renal
SF-268 CNS = system: SF-268 CNS
SF-295 CNS = system: SF-295 CNS
SF-539 CNS = system: SF-539 CNS
SK-MEL-28 melanoma = system: SK-MEL-28 melanoma
SK-MEL-5 melanoma = system: SK-MEL-5 melanoma
SK-OV-3 ovarian = system: SK-OV-3 ovarian
SN12C renal = system: SN12C renal
SNB-19 CNS = system: SNB-19 CNS
SNB-75 CNS = system: SNB-75 CNS
SR leukemia = system: SR leukemia
SW-620 colon = system: SW-620 colon
T-47D breast = system: T-47D breast
TK-10 renal = system: TK-10 renal
U251 glioblastoma = system: U251 glioblastoma
UACC-257 melanoma = system: UACC-257 melanoma
UACC-62 melanoma = system: UACC-62 melanoma
UO-31 renal = system: UO-31 renal

COc1cc2c(cc1O)CCN[C@]21CS[C@@H]2c3c(OC(C)=O)c(C)c4c(c3[C@H](COC1=O)N1[C@@H]2[C@H]2c3c(cc(C)c(OC)c3O)C[C@@H]([C@@H]1O)N2C)OCO4
GI50 (786-0 renal): 0.0975 nM | TGI (786-0 renal): 0.568 nM | GI50 (A498 renal): 1.18 nM | TGI (A498 renal): 2.61 nM | GI50 (A549 NSCLC): 0.868 nM | TGI (A549 NSCLC): 2.37 nM | GI50 (ACHN renal): 0.685 nM | TGI (ACHN renal): 2.24 nM | GI50 (BT-549 breast): 0.0545 nM | TGI (BT-549 breast): 0.124 nM | GI50 (CAKI-1 renal): 0.497 nM | TGI (CAKI-1 renal): 4.25 nM | GI50 (CCRF-CEM leukemia): 0.0203 nM | TGI (CCRF-CEM leukemia): 0.0389 nM | GI50 (COLO 205 colon): 0.433 nM | TGI (COLO 205 colon): 0.882 nM | GI50 (DU-145 prostate): 0.31 nM | TGI (DU-145 prostate): 0.84 nM | GI50 (EKVX NSCLC): 0.583 nM | TGI (EKVX NSCLC): 1.28 nM | GI50 (HCT-116 colon): 0.653 nM | GI50 (HCT-15 colon): 0.595 nM | TGI (HCT-15 colon): 5.24 nM | GI50 (HL-60(TB) leukemia): 0.0567 nM | TGI (HL-60(TB) leukemia): 0.105 nM | GI50 (HOP-62 NSCLC): 0.0657 nM | TGI (HOP-62 NSCLC): 0.177 nM | GI50 (HOP-92 NSCLC): 0.0211 nM | TGI (HOP-92 NSCLC): 0.0954 nM | GI50 (HS 578T breast): 0.175 nM | TGI (HS 578T breast): 0.555 nM | GI50 (HT29 colon): 0.117 nM | TGI (HT29 colon): 0.245 nM | GI50 (IGROV1 ovarian): 0.885 nM | TGI (IGROV1 ovarian): 8.12 nM | GI50 (KM12 colon): 1.4 nM | TGI (KM12 colon): 3.58 nM | GI50 (LOX IMVI melanoma): 0.0744 nM | TGI (LOX IMVI melanoma): 0.234 nM | GI50 (M14 melanoma): 0.0865 nM | TGI (M14 melanoma): 0.237 nM | GI50 (MALME-3M melanoma): 0.136 nM | TGI (MALME-3M melanoma): 0.37 nM | GI50 (MCF7 breast): 0.447 nM | TGI (MCF7 breast): 5.54 nM | GI50 (MDA-MB-231 breast): 1 nM | TGI (MDA-MB-231 breast): 2.56 nM | GI50 (MDA-MB-435 melanoma): 0.614 nM | TGI (MDA-MB-435 melanoma): 1.09 nM | GI50 (MDA-MB-468 breast): 0.0656 nM | TGI (MDA-MB-468 breast): 0.147 nM | GI50 (MOLT-4 leukemia): 0.0228 nM | TGI (MOLT-4 leukemia): 0.0638 nM | GI50 (NCI-H226 lung): 0.0901 nM | TGI (NCI-H226 lung): 0.359 nM | GI50 (NCI-H23 lung): 0.0949 nM | TGI (NCI-H23 lung): 0.309 nM | GI50 (NCI-H322M lung): 0.481 nM | TGI (NCI-H322M lung): 1.03 nM | GI50 (NCI-H460 NSCLC): 0.112 nM | TGI (NCI-H460 NSCLC): 0.454 nM | GI50 (NCI-H522 lung): 0.11 nM | TGI (NCI-H522 lung): 0.447 nM | GI50 (OVCAR-3 ovarian): 0.227 nM | TGI (OVCAR-3 ovarian): 0.698 nM | GI50 (OVCAR-4 ovarian): 2.77 nM | TGI (OVCAR-4 ovarian): 5.98 nM | GI50 (OVCAR-5 ovarian): 0.983 nM | TGI (OVCAR-5 ovarian): 9.36 nM | GI50 (OVCAR-8 ovarian): 0.169 nM | TGI (OVCAR-8 ovarian): 0.555 nM | GI50 (PC-3 prostate): 0.396 nM | TGI (PC-3 prostate): 1.54 nM | GI50 (RPMI-8226 leukemia): 0.0686 nM | TGI (RPMI-8226 leukemia): 0.153 nM | GI50 (RXF 393 renal): 0.0747 nM | TGI (RXF 393 renal): 0.209 nM | GI50 (SF-268 CNS): 0.121 nM | TGI (SF-268 CNS): 0.542 nM | GI50 (SF-295 CNS): 0.0877 nM | TGI (SF-295 CNS): 0.299 nM | GI50 (SF-539 CNS): 0.0765 nM | TGI (SF-539 CNS): 0.185 nM | GI50 (SK-MEL-28 melanoma): 0.459 nM | TGI (SK-MEL-28 melanoma): 0.888 nM | GI50 (SK-MEL-5 melanoma): 0.0992 nM | TGI (SK-MEL-5 melanoma): 0.345 nM | GI50 (SK-OV-3 ovarian): 2.22 nM | TGI (SK-OV-3 ovarian): 7.34 nM | GI50 (SN12C renal): 0.133 nM | TGI (SN12C renal): 0.715 nM | GI50 (SNB-19 CNS): 0.84 nM | GI50 (SNB-75 CNS): 0.0952 nM | TGI (SNB-75 CNS): 0.329 nM | GI50 (SR leukemia): 0.0313 nM | TGI (SR leukemia): 0.0728 nM | GI50 (SW-620 colon): 1.61 nM | TGI (SW-620 colon): 3.49 nM | GI50 (T-47D breast): 0.482 nM | TGI (T-47D breast): 2.33 nM | GI50 (TK-10 renal): 2.48 nM | TGI (TK-10 renal): 6 nM | GI50 (U251 glioblastoma): 0.17 nM | TGI (U251 glioblastoma): 0.842 nM | GI50 (UACC-257 melanoma): 0.546 nM | TGI (UACC-257 melanoma): 0.987 nM | GI50 (UACC-62 melanoma): 0.099 nM | TGI (UACC-62 melanoma): 0.371 nM | GI50 (UO-31 renal): 0.514 nM | TGI (UO-31 renal): 0.962 nM
